The results in this text go back to PubChem BioAssay AID328 (DTP/NCI, 2004).

This experiment concerns BDF1 mice, P388 leukemia ip, median survival T/C. Description: NCI In Vivo Anticancer Drug Screen. Data for tumor model P388 Leukemia (intraperitoneal) in B6D2F1 (BDF1) mice. Particulars: endpoint: median survival time, higher = longer survival. The method, boiled down: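 Reported as T/C, where T is the survival measurement in dosed animals and C the same measurement in vehicle controls.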

Setting [1] is: dose: 25.0 mg/kg/injection, schedule: Q01DX009 (ip), vehicle: Klucel (hydroxypropylcellulose) (HPC).
[2] abbreviates: dose: 100.0 mg/kg/injection, schedule: Q04DX003 (ip), vehicle: Klucel (hydroxypropylcellulose) (HPC).
[3] abbreviates: dose: 50.0 mg/kg/injection, schedule: Q01DX009 (ip), vehicle: saline with Tween-80.
Setting [4] is: dose: 100.0 mg/kg/injection, schedule: Q01DX009 (ip), vehicle: saline with Tween-80.
Setting [5] is: dose: 200.0 mg/kg/injection, schedule: Q01DX009 (ip), vehicle: saline with Tween-80.
Setting [6] is: dose: 50.0 mg/kg/injection, schedule: Q01DX009 (ip), vehicle: saline.
[7] abbreviates: dose: 100.0 mg/kg/injection, schedule: Q01DX009 (ip), vehicle: saline.
Setting [8] is: dose: 400.0 mg/kg/injection, schedule: Q01DX009 (ip), vehicle: saline with Tween-80.

“And” between values parts separate entries of the source, which are not always exact repeats. Equal values may be shown once. Toxic doses and inconclusive results are not listed.

`N#CCNC(=O)c1ccccc1`: the T/C is 88 % of control (dose: 6.0 mg/kg/injection, schedule: Q01DX009 (ip), vehicle: Klucel (hydroxypropylcellulose) (HPC)); 88 % of control (dose: 12.0 mg/kg/injection, schedule: Q01DX009 (ip), vehicle: Klucel (hydroxypropylcellulose) (HPC)); 91 % of control under setting [1]; 110 % of control (dose: 25.0 mg/kg/injection, schedule: Q04DX003 (ip), vehicle: Klucel (hydroxypropylcellulose) (HPC)); 110 % of control (dose: 50.0 mg/kg/injection, schedule: Q04DX003 (ip), vehicle: Klucel (hydroxypropylcellulose) (HPC)); 90 % of control under setting [2].

For the compound `CCCCCCCCCCCCn1c(C)nc2ccccc21`, the T/C is, setting by setting: (dose: 10.0 mg/kg/injection, schedule: Q04DX003 (ip), vehicle: saline) 105 % of control; (dose: 20.0 mg/kg/injection, schedule: Q04DX003 (ip), vehicle: saline) 120 % of control; (dose: 40.0 mg/kg/injection, schedule: Q04DX003 (ip), vehicle: saline) 115 % of control; (dose: 60.0 mg/kg/injection, schedule: Q04DX003 (ip), vehicle: saline) 109 % of control; (dose: 90.0 mg/kg/injection, schedule: Q04DX003 (ip), vehicle: saline) 104 % of control; (dose: 135.0 mg/kg/injection, schedule: Q04DX003 (ip), vehicle: saline) 86 % of control. Further, the T/C reads like this: (dose: 200.0 mg/kg/injection, schedule: Q04DX003 (ip), vehicle: saline) 105 % of control; (dose: 305.0 mg/kg/injection, schedule: Q04DX003 (ip), vehicle: saline) 110 % of control.

Consider `CC[C@@H]1C[C@H]2CC3c4c(c5cc(OC)ccc5n4C)CCN(C2)C31`, for which the T/C is, setting by setting: under setting [3], 102 % of control; under setting [4], 105 % of control; under setting [5], 102 % of control.

As to `Nc1nc2ccccc2[nH]1`, the T/C is 105 % of control under setting [6] and 102 % of control under setting [7].

Consider `NN1N=Nc2cccc3cccc1c23`, for which the T/C runs as follows: under setting [6], 105 % of control; under setting [7], 110 % of control; (dose: 110.0 mg/kg/injection, schedule: Q04DX003 (ip), vehicle: saline) 100 % of control; (dose: 170.0 mg/kg/injection, schedule: Q04DX003 (ip), vehicle: saline) 95 % of control; (dose: 200.0 mg/kg/injection, schedule: Q01DX009 (ip), vehicle: saline) 110 % of control; (dose: 255.0 mg/kg/injection, schedule: Q04DX003 (ip), vehicle: saline) 95 % of control.

In the case of `COc1cc(Cc2cc(OC)c(O)c(OC)c2)cc(OC)c1O`, the T/C is 95 % of control under setting [2]; 100 % of control (dose: 200.0 mg/kg/injection, schedule: Q04DX003 (ip), vehicle: Klucel (hydroxypropylcellulose) (HPC)); 100 % of control (dose: 400.0 mg/kg/injection, schedule: Q04DX003 (ip), vehicle: Klucel (hydroxypropylcellulose) (HPC)).

In the case of `Cc1cc(NC(=O)Nc2ccc(C3=NCCN3)cc2)ccc1NC(=O)Nc1ccc(C2=NCCN2)cc1`, the T/C by setting is: under setting [4], 122 % of control; under setting [8], 159 % of control.

On to `CCC(C)C(=O)O[C@H]1C(=O)O[C@@H]2C[C@H]3C(C)=CC(=O)[C@@H](O)[C@]3(C)[C@H]3[C@@H](O)[C@H](O)[C@@]4(C)OC[C@]32[C@@H]14` (stereo not given in full), for which the T/C by setting is: (dose: 0.06 mg/kg/injection, schedule: Q01DX009 (ip), vehicle: saline + alcohol) 115 % of control; (dose: 0.75 mg/kg/injection, schedule: Q01DX009 (ip), vehicle: saline + alcohol) 159 % of control; (dose: 1.0 mg/kg/injection, schedule: Q01DX009 (ip), vehicle: saline + alcohol) 198 % of control; (dose: 1.5 mg/kg/injection, schedule: Q01DX009 (ip), vehicle: saline + alcohol) 154 % of control; (dose: 2.0 mg/kg/injection, schedule: Q01DX009 (ip), vehicle: saline + alcohol) 155 % of control; (dose: 3.0 mg/kg/injection, schedule: Q01DX009 (ip), vehicle: saline + alcohol) 104 % of control. Besides, the T/C (dose: 4.0 mg/kg/injection, schedule: Q01DX009 (ip), vehicle: saline + alcohol) was 180 % of control.

As for `COC1=C(O)C(C(O)CO)OC1=O` (stereo not given), the T/C reads like this: (dose: 6.25 mg/kg/injection, schedule: Q01DX009 (ip), vehicle: water) 94 % of control; (dose: 12.5 mg/kg/injection, schedule: Q01DX009 (ip), vehicle: water) 112 % of control; (dose: 25.0 mg/kg/injection, schedule: Q01DX009 (ip), vehicle: water) 110 % of control; (dose: 25.0 mg/kg/injection, schedule: Q04DX003 (ip), vehicle: water) 112 % of control; (dose: 50.0 mg/kg/injection, schedule: Q01DX009 (ip), vehicle: water) 100 % of control; (dose: 50.0 mg/kg/injection, schedule: Q04DX003 (ip), vehicle: water) 97 % of control. Also, the T/C runs as follows: (dose: 100.0 mg/kg/injection, schedule: Q01DX009 (ip), vehicle: water) 91 % of control; (dose: 100.0 mg/kg/injection, schedule: Q04DX003 (ip), vehicle: water) 100 % of control; (dose: 200.0 mg/kg/injection, schedule: Q01DX009 (ip), vehicle: water) 103 % of control; (dose: 200.0 mg/kg/injection, schedule: Q04DX003 (ip), vehicle: water) 95 % of control; (dose: 400.0 mg/kg/injection, schedule: Q01DX009 (ip), vehicle: water) 100 % of control; (dose: 400.0 mg/kg/injection, schedule: Q04DX003 (ip), vehicle: water) 105 % of control.

As for `CC(=O)CC(=O)NCCCc1ccccc1`, the T/C runs as follows: (dose: 100.0 mg/kg/injection, schedule: Q04DX003 (sc), vehicle: olive oil, sesame oil, peanut oil) 109 % of control; (dose: 200.0 mg/kg/injection, schedule: Q04DX003 (sc), vehicle: olive oil, sesame oil, peanut oil) 100 % of control; (dose: 400.0 mg/kg/injection, schedule: Q04DX003 (sc), vehicle: olive oil, sesame oil, peanut oil) 100 % of control.

With `CCC[CH2][Sn]([Cl])([CH2]CCC)[S]C(=S)NCCNC(=S)[S][Sn]([Cl])([CH2]CCC)[CH2]CCC`, the T/C (dose: 1.56 mg/kg/injection, schedule: Q04DX003 (ip), vehicle: Klucel (hydroxypropylcellulose) (HPC)) was 110 % of control; the T/C (dose: 3.12 mg/kg/injection, schedule: Q01DX009 (ip), vehicle: Klucel (hydroxypropylcellulose) (HPC)) is 105 % of control; the T/C (dose: 3.13 mg/kg/injection, schedule: Q04DX003 (ip), vehicle: Klucel (hydroxypropylcellulose) (HPC)) is 124 % of control; the T/C (dose: 6.25 mg/kg/injection, schedule: Q01DX009 (ip), vehicle: Klucel (hydroxypropylcellulose) (HPC)) is 153 % of control; the T/C (dose: 6.25 mg/kg/injection, schedule: Q04DX003 (ip), vehicle: Klucel (hydroxypropylcellulose) (HPC)) is 154 % of control; the T/C (dose: 12.5 mg/kg/injection, schedule: Q01DX009 (ip), vehicle: Klucel (hydroxypropylcellulose) (HPC)) is 156 % of control and 158 % of control. For the same compound, the T/C (dose: 12.5 mg/kg/injection, schedule: Q04DX003 (ip), vehicle: Klucel (hydroxypropylcellulose) (HPC)) is 100 % of control and 105 % of control; the T/C under setting [1] was 194 % of control.

As to `CN(C)c1ccc(/C=C/c2ccncc2)cc1`, for the setting “dose: 3.13 mg/kg/injection, schedule: Q01DX009 (ip), vehicle: saline with Tween-80”, the T/C is 115 % of control.

In the case of `CCOP(=S)(N1CC1C)N1CC1C` (stereo not given), the T/C was 116 % of control (dose: 66.0 mg/kg/injection, schedule: Q04DX003 (ip), vehicle: saline with Tween-80); 163 % of control (dose: 100.0 mg/kg/injection, schedule: Q01DX007 (ip), vehicle: saline with Tween-80); 112 % of control (dose: 100.0 mg/kg/injection, schedule: Q04DX003 (ip), vehicle: saline with Tween-80); 159 % of control (dose: 150.0 mg/kg/injection, schedule: Q01DX007 (ip), vehicle: saline with Tween-80); 120 % of control (dose: 150.0 mg/kg/injection, schedule: Q04DX003 (ip), vehicle: saline with Tween-80).

As for `Cc1cc(C)c(C#N)c(=O)[nH]1`, the T/C runs as follows: under setting [6], 99 % of control; under setting [7], 94 % of control.

Take `c1cc[c]([Sn]([S][Sn]([c]2ccccc2)([c]2ccccc2)[c]2ccccc2)([c]2ccccc2)[c]2ccccc2)cc1`: the T/C was 98 % of control under setting [3], 93 % of control under setting [4], 114 % of control under setting [5] and 86 % of control under setting [8].

Regarding `O=C(NO)/C(Cc1ccccc1)=N/O`, the T/C by setting is: under setting [3], 99 % of control; under setting [4], 104 % of control; under setting [5], 98 % of control.
